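Cultured in 96-well plates, cells were exposed to test compound for 48 hours across five concentrations. GI50: concentration for 50% inhibition of growth.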 Calls of active or inactive are those of the source. Cut-off read from the data, not from the text of the source: active = GI50 up to about 1.1 µM and inactive = higher.
How the values were obtained:
Assay in all cases: growth of human tumour cells (NCI), 48 h
786-0 = system: 786-0
A498 = system: A498
A549 = system: A549
ACHN = system: ACHN
BT-549 = system: BT-549
CAKI-1 = system: CAKI-1
CCRF-CEM = system: CCRF-CEM
COLO 205 = system: COLO 205
DU-145 = system: DU-145
EKVX = system: EKVX
HCC 2998 = system: HCC 2998
HCT-116 = system: HCT-116
HCT-15 = system: HCT-15
HL-60 = system: HL-60
HOP-62 = system: HOP-62
HOP-92 = system: HOP-92
HT-29 = system: HT-29
Hs-578T = system: Hs-578T
IGROV-1 = system: IGROV-1
K562 = system: K562
KM12 = system: KM12
LOX IMVI = system: LOX IMVI
M14 = system: M14
MCF7 = system: MCF7
MDA-MB-231 = system: MDA-MB-231
MDA-MB-435 = system: MDA-MB-435
MDA-N = system: MDA-N
MOLT-4 = system: MOLT-4
Malme-3M = system: Malme-3M
NCI-H226 = system: NCI-H226
NCI-H23 = system: NCI-H23
NCI-H460 = system: NCI-H460
NCI-H522 = system: NCI-H522
NCI/ADR-RES = system: NCI/ADR-RES
OVCAR-3 = system: OVCAR-3
OVCAR-4 = system: OVCAR-4
OVCAR-8 = system: OVCAR-8
RPMI-8226 = system: RPMI-8226
SF-268 = system: SF-268
SF-295 = system: SF-295
SF-539 = system: SF-539
SK-MEL-28 = system: SK-MEL-28
SK-MEL-2 = system: SK-MEL-2
SK-MEL-5 = system: SK-MEL-5
SK-OV-3 = system: SK-OV-3
SN12C = system: SN12C
SNB-19 = system: SNB-19
SNB-75 = system: SNB-75
SR = system: SR
SW-620 = system: SW-620
T47D = system: T47D
TK-10 = system: TK-10
U-251 = system: U-251
UACC-257 = system: UACC-257
UACC-62 = system: UACC-62
UO-31 = system: UO-31
PC-3 = system: PC-3
RXF 393 = system: RXF 393

Q: Which results are given for `O=C(O)C(NCc1ccccc1)C(NCc1ccccc1)C(=O)O` (stereo not given)?
A: GI50 (786-0): > 100 µM (inactive); GI50 (A498): > 100 µM (inactive); GI50 (A549): > 100 µM (inactive); GI50 (ACHN): > 100 µM (inactive); GI50 (BT-549): > 100 µM (inactive); GI50 (CAKI-1): > 100 µM (inactive); GI50 (CCRF-CEM): > 100 µM (inactive); GI50 (COLO 205): > 100 µM (inactive); GI50 (DU-145): > 100 µM (inactive); GI50 (EKVX): > 100 µM (inactive); GI50 (HCC 2998): > 100 µM (inactive); GI50 (HCT-116): > 100 µM (inactive); GI50 (HCT-15): > 100 µM; GI50 (HL-60): > 100 µM (inactive); GI50 (HOP-62): > 100 µM (inactive); GI50 (HOP-92): > 100 µM (inactive); GI50 (HT-29): > 100 µM (inactive); GI50 (Hs-578T): > 100 µM (inactive); GI50 (IGROV-1): > 100 µM (inactive); GI50 (K562): > 100 µM (inactive); GI50 (KM12): > 100 µM (inactive); GI50 (LOX IMVI): > 100 µM (inactive); GI50 (M14): > 100 µM (inactive); GI50 (MCF7): > 100 µM (inactive); GI50 (MDA-MB-231): > 100 µM (inactive); GI50 (MDA-MB-435): > 100 µM (inactive); GI50 (MDA-N): > 100 µM (inactive); GI50 (MOLT-4): > 100 µM (inactive); GI50 (Malme-3M): > 100 µM (inactive); GI50 (NCI-H226): > 100 µM (inactive); GI50 (NCI-H23): > 100 µM (inactive); GI50 (NCI-H460): > 100 µM (inactive); GI50 (NCI-H522): > 100 µM (inactive); GI50 (NCI/ADR-RES): > 100 µM (inactive); GI50 (OVCAR-3): > 100 µM (inactive); GI50 (OVCAR-4): > 100 µM (inactive); GI50 (OVCAR-8): > 100 µM (inactive); GI50 (RPMI-8226): > 100 µM (inactive); GI50 (SF-268): > 100 µM (inactive); GI50 (SF-295): > 100 µM (inactive); GI50 (SF-539): > 100 µM (inactive); GI50 (SK-MEL-28): > 100 µM (inactive); GI50 (SK-MEL-2): > 100 µM (inactive); GI50 (SK-MEL-5): > 100 µM (inactive); GI50 (SK-OV-3): > 100 µM (inactive); GI50 (SN12C): > 100 µM (inactive); GI50 (SNB-19): > 100 µM (inactive); GI50 (SNB-75): > 100 µM (inactive); GI50 (SR): > 100 µM (inactive); GI50 (SW-620): > 100 µM (inactive); GI50 (T47D): > 100 µM (inactive); GI50 (TK-10): > 100 µM (inactive); GI50 (U-251): > 100 µM (inactive); GI50 (UACC-257): > 100 µM (inactive); GI50 (UACC-62): > 100 µM (inactive); GI50 (UO-31): > 100 µM (inactive)

Q: What does the source list for `O=C1c2c(O)cc(O)cc2OC(c2ccc(O)cc2O)C1O` (stereo not given)?
A: GI50 (A549): > 100 µM (inactive); GI50 (BT-549): > 100 µM (inactive); GI50 (CAKI-1): > 100 µM (inactive); GI50 (DU-145): > 100 µM (inactive); GI50 (EKVX): > 100 µM (inactive); GI50 (Hs-578T): > 100 µM (inactive); GI50 (KM12): > 100 µM (inactive); GI50 (M14): > 100 µM (inactive); GI50 (MCF7): > 100 µM (inactive); GI50 (MDA-MB-231): > 100 µM (inactive); GI50 (MDA-MB-435): > 100 µM (inactive); GI50 (MDA-N): > 100 µM (inactive); GI50 (NCI-H23): > 100 µM (inactive); GI50 (NCI-H460): > 100 µM (inactive); GI50 (PC-3): > 100 µM (inactive); GI50 (RXF 393): > 100 µM (inactive); GI50 (SF-295): > 100 µM (inactive); GI50 (T47D): > 100 µM (inactive); GI50 (TK-10): > 100 µM (inactive)
